Where “and” joins values, the source holds several entries; their conditions need not be identical. Identical values can stand only once.

The target of the first assay is PIK3CA (human) (UniProt P42336). Briefly: Inhibition of PIK3CA Kinase Activity.
Sequence of PIK3CA (human) (P42336 whole entry, looked up): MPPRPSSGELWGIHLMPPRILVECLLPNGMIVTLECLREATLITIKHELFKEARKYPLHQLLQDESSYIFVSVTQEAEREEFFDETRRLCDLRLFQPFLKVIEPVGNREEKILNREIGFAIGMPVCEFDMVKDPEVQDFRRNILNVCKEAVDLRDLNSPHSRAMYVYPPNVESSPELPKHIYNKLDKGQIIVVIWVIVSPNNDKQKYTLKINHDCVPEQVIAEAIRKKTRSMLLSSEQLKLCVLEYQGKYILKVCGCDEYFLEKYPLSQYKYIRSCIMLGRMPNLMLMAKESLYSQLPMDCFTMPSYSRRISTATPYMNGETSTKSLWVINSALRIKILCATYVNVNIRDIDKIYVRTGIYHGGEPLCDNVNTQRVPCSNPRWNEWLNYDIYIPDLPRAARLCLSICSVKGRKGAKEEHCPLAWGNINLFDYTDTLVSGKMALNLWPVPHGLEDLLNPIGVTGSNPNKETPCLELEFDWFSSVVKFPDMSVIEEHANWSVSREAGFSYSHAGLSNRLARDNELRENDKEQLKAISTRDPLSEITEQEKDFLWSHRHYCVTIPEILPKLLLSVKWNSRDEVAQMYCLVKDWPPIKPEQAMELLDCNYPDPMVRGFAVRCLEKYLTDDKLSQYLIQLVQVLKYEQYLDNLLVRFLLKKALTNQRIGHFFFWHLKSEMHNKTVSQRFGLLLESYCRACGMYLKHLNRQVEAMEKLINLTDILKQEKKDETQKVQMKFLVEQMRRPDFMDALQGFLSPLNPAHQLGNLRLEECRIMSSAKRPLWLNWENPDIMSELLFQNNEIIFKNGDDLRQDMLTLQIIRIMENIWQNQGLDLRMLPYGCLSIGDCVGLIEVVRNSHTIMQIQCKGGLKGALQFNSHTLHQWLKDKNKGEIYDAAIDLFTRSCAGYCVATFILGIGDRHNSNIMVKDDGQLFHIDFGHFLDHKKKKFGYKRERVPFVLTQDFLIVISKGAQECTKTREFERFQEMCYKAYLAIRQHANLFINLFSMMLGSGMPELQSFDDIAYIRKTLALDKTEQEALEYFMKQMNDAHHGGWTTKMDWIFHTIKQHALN
In general, IC50 refers to the concentration that inhibits the measured activity by half. A higher IC50 goes with lower potency. For `Cc1nc(-c2cn3c(n2)-c2ccc(-c4cnn(C)c4C4CN(C(C)C)CCO4)cc2OCC3)n(C(C)C)n1` (configuration not stated), the IC50 is 17.9 nM and 107 nM and 41.5 nM.

In turn, `Cc1nc(-c2cn3c(n2)-c2ccc(-c4cnn(C)c4C4CCCN(C(C)C)C4)cc2OCC3)n(C(C)C)n1` (configuration not stated) gave an IC50 of 57.7 nM. That is a double-digit nanomolar value.

In turn, `Cc1nc(-c2cn3c(n2)-c2ccc(N4CCC[C@H]4CN4CCCC4)cc2OCC3)n(C(C)C)n1` registered an IC50 of 6.32 nM. This IC50 is about 9.1-fold lower than that of the molecule before.

For `CCN(CC)C1CCOC(c2c(-c3ccc4c(c3)OCCn3cc(-c5nc(C)nn5C(C)C)nc3-4)cnn2C)C1` (configuration not stated), the IC50 is 64.5 nM and 65.8 nM and 54.8 nM.

Turning to `Cc1nc(-c2cn3c(n2)-c2ccc(-c4cnn(C)c4N4CCN(C)[C@H](C(C)C)C4)cc2OCC3)n(C(C)C)n1`, the IC50 came out at 2.34 nM.

In turn, `Cc1nc(-c2cn3c(n2)-c2ccc(OC4(C)CNC4)cc2OCC3)n(C(C)C)n1` came in with an IC50 of 6.2 nM.

In turn, `Cc1nc(-c2cn3c(n2)-c2cc(-c4ccnn4[C@H]4CCCN(C5COC5)C4)c(F)cc2OCC3)n(C(C)C)n1` yielded an IC50 of 207 nM.

`COc1cc2c(cc1[C@H](C)N1CCN(C(C)(C)C)CC1)-c1nc(-c3nc(C)nn3C(C)C)cn1CCO2`: the IC50 is 62 nM and 90.9 nM.

For `Cc1nc(-c2cn3c(n2)-c2ccc(N4CCCC4C4CCN(CC(C)(C)O)CC4)cc2OCC3)n(C(C)C)n1` (configuration not stated), the IC50 is 74.8 nM and 49.2 nM.

For `CC(C)n1nc(CO)nc1-c1cn2c(n1)-c1ccc(-c3ccnn3C3CCN(C)CC3)cc1OCC2`, the IC50 is 38.5 nM.

The molecule `Cc1nc(-c2cn3c(n2)-c2ccc(OC4(CC5CC5)CN(C(C)C)C4)cc2OCC3)n(C(C)C)n1` showed an IC50 of 70.7 nM.

Molecule `Cc1nc(-c2cn3c(n2)-c2ccc(OC4(CC5CC5)CNC4)cc2OCC3)n(C(C)C)n1` came in with an IC50 of 69.3 nM.

`Cc1nc(-c2cn3c(n2)-c2ccc(-c4cnn(C(C)C)c4CN4CCN(C(C)(C)C)CC4)cc2OCC3)n(C(C)C)n1` registered an IC50 of 111 nM.

On to `Cc1nc(-c2cn3c(n2)-c2ccc(-c4ccnn4C4CCN(C(C)C)CC4)cc2OCC3)n(C(C)C)n1`, for which the IC50 is 33.4 nM.

On to `Cc1nc(-c2cn3c(n2)-c2ccc(-c4ccnn4C4CCCN(C(C)(C)CO)C4)cc2OCC3)n(C(C)C)n1` (configuration not stated), for which the IC50 came out at 14.4 nM.

As for `CC(Oc1ccc2c(c1)OCCn1cc(-c3ncnn3C(C)C)nc1-2)C1CCN(C(C)C)CC1` (configuration not stated), the IC50 was 6.36 nM.

For another assay, the target named is PIK3CD (Human) (UniProt O00329). The experiment in a line: Enzyme Assay.
Sequence of PIK3CD (Human) (O00329 whole entry, looked up): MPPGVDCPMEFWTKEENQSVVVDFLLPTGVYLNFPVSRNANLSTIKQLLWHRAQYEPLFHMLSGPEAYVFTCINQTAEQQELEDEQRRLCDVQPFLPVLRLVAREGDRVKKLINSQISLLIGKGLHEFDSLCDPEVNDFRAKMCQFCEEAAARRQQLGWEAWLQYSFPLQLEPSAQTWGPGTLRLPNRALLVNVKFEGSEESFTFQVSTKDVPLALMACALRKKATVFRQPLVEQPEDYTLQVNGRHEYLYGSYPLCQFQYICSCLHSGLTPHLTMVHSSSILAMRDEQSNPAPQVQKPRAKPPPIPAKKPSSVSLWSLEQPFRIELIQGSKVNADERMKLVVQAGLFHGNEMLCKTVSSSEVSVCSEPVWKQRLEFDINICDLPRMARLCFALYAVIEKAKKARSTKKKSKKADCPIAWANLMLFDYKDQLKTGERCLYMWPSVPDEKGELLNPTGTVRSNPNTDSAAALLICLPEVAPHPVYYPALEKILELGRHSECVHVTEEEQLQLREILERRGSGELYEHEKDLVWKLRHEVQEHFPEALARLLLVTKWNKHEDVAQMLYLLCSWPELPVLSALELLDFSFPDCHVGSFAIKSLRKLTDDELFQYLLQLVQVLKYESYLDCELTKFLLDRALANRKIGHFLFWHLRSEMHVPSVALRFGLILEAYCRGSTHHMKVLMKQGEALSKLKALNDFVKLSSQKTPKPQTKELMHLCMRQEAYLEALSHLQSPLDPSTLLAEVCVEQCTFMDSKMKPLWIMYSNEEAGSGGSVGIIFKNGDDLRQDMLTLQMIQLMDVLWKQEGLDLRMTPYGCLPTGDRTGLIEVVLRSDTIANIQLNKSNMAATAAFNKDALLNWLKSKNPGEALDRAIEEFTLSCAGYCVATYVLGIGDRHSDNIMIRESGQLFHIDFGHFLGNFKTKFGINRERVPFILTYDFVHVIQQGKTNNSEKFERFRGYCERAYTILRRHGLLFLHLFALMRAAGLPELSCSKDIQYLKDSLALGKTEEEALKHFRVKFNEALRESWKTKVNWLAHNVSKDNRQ
Take `Cc1nc(-c2cn3c(n2)-c2ccc(-c4cnn(C)c4C4CN(C(C)C)CCO4)cc2OCC3)n(C(C)C)n1` (configuration not stated): the IC50 is 1.2 nM and 1.08 nM.

The values are drawn from the Kinase Knowledgebase extract (Sharma et al. 2016).
